Publication PMC8112869, “Therapeutic inhibition of keratinocyte TRPV3 sensory channel by local anesthetic dyclonine” (eLife, 2021)

Key:
Type in all cases: cell-based
frog TRPV3 (fTRPV3) = frog TRPV3 (fTRPV3) (Xenopus tropicalis, UniProt F6UZP3); assay: Whole-cell recording of 2-APB-evoked currents in fTRPV3-expressing HEK 293T cells
From the text: (§1) The WT mouse TRPV3 (mTRPV3), human TRPV3 (hTRPV3), rat TRPV1, rat TRPV2, rat TRPM8, and mouse TRPA1 cDNAs were generously provided by Dr. Feng Qin (State University of New York at Buffalo, Buffalo, USA). The GFP-mTRPV3 WT and the mutants (mTRPV3-G573S and mTRPV3-G573C) in pcDNA4/TO vector were gifts from Dr. Michael X Zhu (The University of Texas Health Science Center at Houston, Houston, USA). The WT fTRPV3 was kindly provided by Dr. Makoto Tominaga (Department of Physiological Sciences, SOKENDAI, Okazaki, Japan). All mutations were made using the overlap-extension polymerase chain reaction method as previously described ([Tian et al., 2019]). The resulting mutations were then verified by DNA sequencing. […]
(§2) Conventional whole-cell and excised patch-clamp recording methods were used. […] For a subset of recordings, currents were amplified using an Axopatch 200B amplifier (Molecular Devices, Sunnyvale, CA) and recorded through a BNC-2090/MIO acquisition system (National Instruments, Austin, TX) using QStudio developed by Dr. Feng Qin at State University of New York at Buffalo. […] As determined by the conductance tests, the solution around a patch under study was fully controlled by the application of a flow rate of 100 μl/min or greater. […]

TRPV3 I659A = molecular target: T1, TRPV3 I659A (Mus musculus, UniProt Q8K424, I659A); assay: Whole-cell recording of TRPV3 mutant I659A in HEK 293T cells; details: 2-APB (1 mM)-evoked, –60 mV, read-out: IC50 for inhibition of TRPV3 mutant
T1 construct: expressed in transfected cells; host or cells: HEK 293T
T1 sequence (Q8K424 whole entry I659A): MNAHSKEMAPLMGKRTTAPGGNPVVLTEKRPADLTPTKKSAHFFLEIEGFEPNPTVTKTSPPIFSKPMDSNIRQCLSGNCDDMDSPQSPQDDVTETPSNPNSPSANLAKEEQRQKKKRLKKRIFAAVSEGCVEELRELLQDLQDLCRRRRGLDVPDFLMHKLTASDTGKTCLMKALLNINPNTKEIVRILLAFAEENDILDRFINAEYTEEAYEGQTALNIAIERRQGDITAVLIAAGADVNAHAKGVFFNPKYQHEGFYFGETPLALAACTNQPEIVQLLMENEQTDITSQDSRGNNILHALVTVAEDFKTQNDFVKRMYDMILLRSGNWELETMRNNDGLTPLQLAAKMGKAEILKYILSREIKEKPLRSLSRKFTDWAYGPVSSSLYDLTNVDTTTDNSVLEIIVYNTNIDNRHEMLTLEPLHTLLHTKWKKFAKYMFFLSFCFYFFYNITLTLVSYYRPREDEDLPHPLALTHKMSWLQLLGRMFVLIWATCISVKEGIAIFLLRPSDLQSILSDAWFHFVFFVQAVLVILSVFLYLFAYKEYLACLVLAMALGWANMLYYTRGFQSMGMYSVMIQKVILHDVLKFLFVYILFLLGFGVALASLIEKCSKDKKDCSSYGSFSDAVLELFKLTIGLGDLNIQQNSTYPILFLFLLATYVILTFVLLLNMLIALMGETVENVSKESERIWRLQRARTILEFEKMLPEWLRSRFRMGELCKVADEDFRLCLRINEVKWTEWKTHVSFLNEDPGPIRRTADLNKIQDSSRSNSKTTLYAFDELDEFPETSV
From the text: as §1, §2

TRPV3 N643A = molecular target: T2, TRPV3 N643A (Mus musculus, UniProt Q8K424, N643A); assay: Whole-cell recording of TRPV3 mutant N643A in HEK 293T cells; details: 2-APB (1 mM)-evoked, –60 mV, read-out: IC50 for inhibition of TRPV3 mutant
T2 construct: expressed in transfected cells; host or cells: HEK 293T
T2 sequence (Q8K424 whole entry N643A): as the sequence (Q8K424 whole entry I659A) above, with N643A, A659I counted along it
From the text: as §1, §2

TRPV1 = molecular target: T3, TRPV1 (Rattus norvegicus, UniProt O35433); assay: Whole-cell recording of capsaicin-activated TRPV1 in HEK 293T cells
T3 construct: expressed in transfected cells; host or cells: HEK 293T
T3 sequence (O35433 whole entry): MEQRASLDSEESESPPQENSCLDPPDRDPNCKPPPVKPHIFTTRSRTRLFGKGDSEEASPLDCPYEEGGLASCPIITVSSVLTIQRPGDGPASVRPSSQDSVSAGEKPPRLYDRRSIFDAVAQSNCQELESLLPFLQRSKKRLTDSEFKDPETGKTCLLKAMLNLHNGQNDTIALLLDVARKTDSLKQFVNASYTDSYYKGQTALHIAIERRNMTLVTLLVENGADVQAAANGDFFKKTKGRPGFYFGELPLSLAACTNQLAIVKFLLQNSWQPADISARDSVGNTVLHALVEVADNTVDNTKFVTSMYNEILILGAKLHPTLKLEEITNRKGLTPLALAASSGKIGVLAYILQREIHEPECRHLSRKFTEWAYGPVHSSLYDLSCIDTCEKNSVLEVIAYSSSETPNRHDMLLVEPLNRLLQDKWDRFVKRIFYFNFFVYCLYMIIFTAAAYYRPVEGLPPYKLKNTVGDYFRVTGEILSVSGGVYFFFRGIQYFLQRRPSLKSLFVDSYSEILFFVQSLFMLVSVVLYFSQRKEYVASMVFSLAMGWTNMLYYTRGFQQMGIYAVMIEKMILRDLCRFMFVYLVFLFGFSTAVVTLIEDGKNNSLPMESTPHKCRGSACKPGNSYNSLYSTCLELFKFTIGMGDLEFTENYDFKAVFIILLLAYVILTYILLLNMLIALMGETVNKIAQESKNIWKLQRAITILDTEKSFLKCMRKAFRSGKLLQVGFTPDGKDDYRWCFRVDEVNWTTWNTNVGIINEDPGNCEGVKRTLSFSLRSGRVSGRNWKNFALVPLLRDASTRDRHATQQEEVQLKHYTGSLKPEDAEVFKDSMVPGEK
From the text: as §1, §2

TRPV3 I674A = molecular target: T4, TRPV3 I674A (Mus musculus, UniProt Q8K424, I674A); assay: Whole-cell recording of TRPV3 mutant I674A in HEK 293T cells; details: 2-APB (1 mM)-evoked, –60 mV, read-out: IC50 for inhibition of TRPV3 mutant
T4 construct: expressed in transfected cells; host or cells: HEK 293T
T4 sequence (Q8K424 whole entry I674A): as the sequence (Q8K424 whole entry I659A) above, with A659I, I674A counted along it
From the text: as §1, §2

TRPV3 (G573C) = molecular target: T5, TRPV3 (G573C) (Mus musculus, UniProt Q8K424, G573C); assay: Whole-cell currents of TRPV3 (G573C) expressed in T-Rex 293 cells
T5 construct: expressed in transfected cells; host or cells: T-Rex 293
T5 sequence (Q8K424 whole entry G573C): as the sequence (Q8K424 whole entry I659A) above, with G573C, A659I counted along it
From the text: as §1, §2

Chain of frog TRPV3 (fTRPV3) (F6UZP3 entry or part of it): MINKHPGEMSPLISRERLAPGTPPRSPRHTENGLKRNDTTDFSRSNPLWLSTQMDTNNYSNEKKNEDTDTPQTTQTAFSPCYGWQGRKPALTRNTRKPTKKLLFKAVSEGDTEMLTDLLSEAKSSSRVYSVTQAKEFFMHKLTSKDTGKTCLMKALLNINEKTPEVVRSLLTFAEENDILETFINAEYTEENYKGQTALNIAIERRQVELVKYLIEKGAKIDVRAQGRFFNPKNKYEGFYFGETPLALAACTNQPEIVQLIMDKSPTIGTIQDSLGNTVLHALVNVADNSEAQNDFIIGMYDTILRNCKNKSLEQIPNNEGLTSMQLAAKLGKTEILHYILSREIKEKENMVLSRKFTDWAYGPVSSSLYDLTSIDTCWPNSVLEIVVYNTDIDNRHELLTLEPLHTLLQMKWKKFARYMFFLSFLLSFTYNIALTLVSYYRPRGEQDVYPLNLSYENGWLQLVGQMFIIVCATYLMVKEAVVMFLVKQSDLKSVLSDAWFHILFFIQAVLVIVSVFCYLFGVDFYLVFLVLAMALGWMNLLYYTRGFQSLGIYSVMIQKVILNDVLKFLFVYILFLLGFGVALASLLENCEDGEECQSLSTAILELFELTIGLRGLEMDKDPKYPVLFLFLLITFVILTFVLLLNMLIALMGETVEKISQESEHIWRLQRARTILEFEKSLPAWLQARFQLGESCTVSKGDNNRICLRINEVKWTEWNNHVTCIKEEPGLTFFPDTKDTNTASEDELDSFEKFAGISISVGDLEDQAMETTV

- Hill coefficient nH (frog TRPV3 (fTRPV3)): 1.6 ± 0.34
- IC50 (frog TRPV3 (fTRPV3); 3 mM 2-APB-evoked, –60 mV, read-out: IC50 on inhibition of fTRPV3 currents): 12.3 µM
- IC50 (TRPV3 I659A): 0.56 ± 0.06 µM
- IC50 (TRPV3 N643A): 37.7 ± 5.1 µM
- Hill coefficient nH (TRPV1): 2.0 ± 0.31
- reduction in current amplitude (TRPV1; 10 μM dyclonine, capsaicin-activated): 2% ± 1%
- IC50 (TRPV3 I674A): 15.1 ± 2.1 µM
- reduction of spontaneous activities (TRPV3 (G573C); 10 μM dyclonine, –60 mV, leak subtracted with 20 μM RR): 71% ± 2%
- 300 μM 2-APB-evoked responses, of control level (TRPV3 (G573C); presence of dyclonine): 11% ± 1%
SMILES: CCCCOc1ccc(C(=O)CCN2CCCCC2)cc1 [dyclonine]
